Data reported in patent US20160176859A1, “High-Throughput Assay for Identifying Small Molecules that Modulate AMP-activated Protein Kinase (AMPK)” (North Carolina Central University, priority 2013, published 2016).
Entries after “also recorded” stand apart in the source; their conditions may differ. Read-outs that look alike come from different tables or passages of the source.

Assays:
[1] = biological target: T1, full-length AMPK (rat His-α1, β1, γ1) (Rattus norvegicus, UniProt P54645+P80385); test: MANT-ADP fluorescence displacement (binding) assay, full-length AMPK; conditions: for displacement of MANT-ADP: full-length AMPK compared with regulatory fragment: compared in parallel; for IC50: full-length AMPK
T1 construct: Tricistronic vectors encoding full-length AMPK (rat His-α1, β1, γ1); made in house; host or cells: Rosetta cells (E. coli), tricistronic vector, gift of Dr. Uwe Schlattner
T1 sequence (P54645 with tags, fused parts or gaps limits assumed): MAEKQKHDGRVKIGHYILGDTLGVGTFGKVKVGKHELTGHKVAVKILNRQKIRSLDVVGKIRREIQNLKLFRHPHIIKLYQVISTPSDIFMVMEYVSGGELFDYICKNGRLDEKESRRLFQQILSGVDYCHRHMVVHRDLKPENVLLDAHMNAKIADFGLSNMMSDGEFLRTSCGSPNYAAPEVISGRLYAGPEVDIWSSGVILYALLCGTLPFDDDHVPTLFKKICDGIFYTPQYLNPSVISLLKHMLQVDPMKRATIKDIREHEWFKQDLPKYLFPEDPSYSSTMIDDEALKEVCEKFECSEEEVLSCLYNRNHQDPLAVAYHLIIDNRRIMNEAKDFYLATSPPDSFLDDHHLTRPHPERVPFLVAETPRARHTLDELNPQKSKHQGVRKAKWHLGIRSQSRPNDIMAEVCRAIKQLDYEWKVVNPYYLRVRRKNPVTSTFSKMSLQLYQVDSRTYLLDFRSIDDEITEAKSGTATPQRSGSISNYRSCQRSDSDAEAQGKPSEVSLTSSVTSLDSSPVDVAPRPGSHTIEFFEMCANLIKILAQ
T1 sequence (P80386 whole entry partner, the tested form may be a part): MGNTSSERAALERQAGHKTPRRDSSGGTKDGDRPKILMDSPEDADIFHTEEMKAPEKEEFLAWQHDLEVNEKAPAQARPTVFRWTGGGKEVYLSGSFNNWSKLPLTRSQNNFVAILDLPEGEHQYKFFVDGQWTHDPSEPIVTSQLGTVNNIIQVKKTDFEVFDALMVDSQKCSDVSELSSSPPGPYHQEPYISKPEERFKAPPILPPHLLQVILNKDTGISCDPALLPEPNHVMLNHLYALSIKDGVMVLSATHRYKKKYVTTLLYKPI
T1 sequence (P80385 whole entry, the tested form may be a part): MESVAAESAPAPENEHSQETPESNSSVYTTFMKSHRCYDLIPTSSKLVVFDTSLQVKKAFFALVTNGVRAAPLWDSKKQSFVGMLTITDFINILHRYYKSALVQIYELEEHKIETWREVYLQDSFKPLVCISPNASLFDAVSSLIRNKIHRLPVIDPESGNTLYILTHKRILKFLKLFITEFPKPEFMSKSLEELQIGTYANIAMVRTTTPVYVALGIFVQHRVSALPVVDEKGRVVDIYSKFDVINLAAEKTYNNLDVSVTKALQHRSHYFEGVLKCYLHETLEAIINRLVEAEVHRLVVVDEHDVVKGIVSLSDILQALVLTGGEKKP
Experimental: (§1) Except where otherwise noted, assays were performed with the following conditions: 0.5 μM full-length AMPK (130 kDa) or 0.5 μM regulatory fragment (66.7 kDa), 0.1 μM MANT-ADP, 10 mM Tris-HCl (pH 8), 0.45% DMSO (vehicle and negative control), and 5 μM ADP (positive control). Automated assays were assembled in two steps. First, a NanoQuot (BioTek) was used to dispense 11 μL of master mix (protein, MANT-ADP, and Tris-HCl) per well in black, low volume 384-well plates (Corning-3676). Next, a Biomek NX workstation (Beckman-Coulter, Brea, Calif.) equipped with pintools (VP Scientific, San Diego Calif.) was used to transfer 50 nL of controls (columns 1, 2, 23, and 24) and small molecules (4.5 μM final). Controls and library molecules were transferred from Axygen 384-well rigid PCR plates (Cat no. 321-67-051) at 221× concentration for single-concentration screening. Plates were shaken for 10 minutes prior to reading.
(§2) Fluorescence emission spectra of MANT-ADP were collected using a PerkinElmer EnSpire plate reader with an excitation wavelength of 360 nm. Background fluorescence from protein was subtracted from the raw data prior to plotting MANT-ADP's fluorescence in the presence of protein. Fluorescence detection for assay development and screening was performed on either a BMG Pherastar Plus (360/10 excitation and 460/10 emission filters) or a PerkinElmer EnVision (355/40 excitation and 460/25 emission filters), depending on equipment availability. Relative fluorescence units (RFUs) were recorded at room temperature.
(§3) ScreenAble (ScreenAble Solutions, Chapel Hill, N.C.) high-throughput screening software was utilized for merging screening data and chemical structure, for statistical design of experiments, and hit selection. GraphPad Prism was used for non-linear regression analysis of dose response data.
(§4) Binding assays. Except where otherwise noted, assay assembly and data analysis were completed according to published methods. Binding assays were manually assembled, with the exception of the similarity screen. Automated assembly of the similarity screen was completed according to published methods. Analogs were cherry-picked from a 10 mM Asinex small molecule library and a 0.5 mM kinase focused library, which has been described previously (4). Molecules were screened at a final concentration of 45 and 2.3 μM, respectively.

[2] = biological target: T2, AMPK regulatory fragment (rat His-α1, 396-548; human β2, 187-272; rat γ1) (Rattus norvegicus, UniProt P80385); test: MANT-ADP fluorescence displacement (binding) assay, AMPK regulatory fragment; conditions: MANT-ADP with no protein = 100% inhibition, read-out: IC50, inhibition of the increase in MANT-ADP fluorescence
T2 construct: rat His-α1, 396-548; human β2, 187-272; rat γ1; made in house; host or cells: Rosetta cells (E. coli), tricistronic vector, gift of Dr. Steve Gamblin
T2 sequence (P54645 407-559 partner limits assumed): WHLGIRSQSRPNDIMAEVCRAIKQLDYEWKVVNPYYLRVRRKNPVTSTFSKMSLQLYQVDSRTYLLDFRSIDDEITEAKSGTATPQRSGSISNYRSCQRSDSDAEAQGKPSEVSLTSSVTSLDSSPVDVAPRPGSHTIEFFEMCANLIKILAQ
T2 sequence (O43741 187-272 partner limits assumed): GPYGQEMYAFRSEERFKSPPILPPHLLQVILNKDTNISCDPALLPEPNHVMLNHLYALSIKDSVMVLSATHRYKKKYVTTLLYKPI
T2 sequence (P80385 whole entry, the tested form may be a part): as the sequence (P80385 whole entry, the tested form may be a part) above
Experimental: as §1, §2, §3, §4

[3] = biological target: T3, full-length His-AMPK (Rattus norvegicus, UniProt P54645+P80385); test: Isothermal titration calorimetry; format: binding; conditions: both sites; 5 mM phosphate buffer (pH 7.4), room temperature; n=1; read-out: calculated dissociation constants
T3 construct: Tricistronic vectors encoding full-length AMPK (rat His-α1, β1, γ1); made in house; host or cells: Rosetta cells (E. coli), tricistronic vector, gift of Dr. Uwe Schlattner
T3 sequence (P54645 with tags, fused parts or gaps limits assumed): as the sequence (P54645 with tags, fused parts or gaps limits assumed) above
T3 sequence (P80386 whole entry partner): as the sequence (P80386 whole entry partner, the tested form may be a part) above
T3 sequence (P80385 whole entry): as the sequence (P80385 whole entry, the tested form may be a part) above
Experimental: ITC. A MicroCal Auto-iTC200 system (GE Healthcare, Pittsburgh, Pa.) was used to study binding interactions between ADP and full-length His-AMPK at room temperature in the presence of 5 mM phosphate buffer (pH 7.4). To decrease the ionic strength of the buffer, full-length AMPK frozen in 50 mM phosphate buffer was thawed, diluted in 5 mM phosphate buffer (pH 7.4) and then concentrated via centrifugal filtration. At the start of the ITC experiment, the concentrations of His-AMPK (in the sample cell) and ADP (in the syringe) were 70 μM and 1.4 mM, respectively.

[4] = biological target: T4, purified p-AMPK (Rattus norvegicus, UniProt P54645+P80385); test: Kinase assay with purified p-AMPK and GST-ACC peptide; format: biochemical
T4 construct: Full-length AMPK intended for use in phosphatase and kinase assays was purified, mixed with GST-CaMKKβ; made in house; host or cells: Rosetta cells (E. coli); phosphorylated in vitro with GST-CaMKKβ, which was then removed on glutathione resin
T4 sequence (P54645 with tags, fused parts or gaps limits assumed): as the sequence (P54645 with tags, fused parts or gaps limits assumed) above
T4 sequence (P80386 whole entry partner): as the sequence (P80386 whole entry partner, the tested form may be a part) above
T4 sequence (P80385 whole entry): as the sequence (P80385 whole entry, the tested form may be a part) above
Experimental: Kinase assays. Assay conditions were adapted from published methods (17). The final assay buffer was comprised of 40 mM Hepes (pH 7.4) 5 mM MgCl2, 200 μM ATP, 75 mM NaCl, 0.01% Triton X-100, 1 mM DTT, and 0.45% DMSO (vehicle). Because some analogs had poor solubility at high concentrations, all analogs and controls were diluted in assay buffer and centrifuged (1 min, 5000 rpm, 4° C.) to remove insoluble matter. GST-ACC peptide and p-AMPK were thawed, diluted in assay buffer, and then added to the supernatant at final concentrations of 900 and 0.1 ng/μL, respectively. Kinase assays were assembled on ice; reactions were allowed to proceed for 30 minutes at room temperature. Reactions were stopped by the addition of loading buffer and 48 mM DTT followed promptly by freezing at −20° C.
(§5) Western analyses. Protein samples were boiled for 15 minutes in loading buffer and DTT prior to SDS-PAGE. Blots for protein-based assays were sequentially incubated with the following: 5% BSA in 1× TBS (1 hr, 22° C.), 1:1000 rabbit anti-human p-AMPK-α antibody or p-ACC antibody (2 hr, 22° C.), and 1:10,000 donkey anti-rabbit secondary antibody (1 hr, 22° C.). Blots for phosphatase assays were probed a second time using 1:100 mouse anti-human total AMPK antibody (overnight, 4° C.; from UNC Antibody Core Facility) followed by 1:10,000 donkey anti-mouse secondary antibody (1 hr, 22° C.). Blots for clarified cell lysates were sequentially probed for p-AMPK (1:500 dilution, overnight at 4° C. or 4 hours at 22° C.), total ACC (1:1000 dilution, overnight at 4° C. or 4 hours at 22° C.), and tubulin (1:10,000 dilution, 1 hr, 22° C.); a parallel set of blots were probed for p-ACC (1:500 dilution, overnight at 4° C. or 4 hours at 22° C.), total AMPK (1:1000 dilution, overnight at 4° C. or 4 hours at 22° C.), and tubulin (1:10,000 dilution, 1 hr, 22° C.). Because phosphorylated and total protein were imaged on separate membranes, the signals were normalized to the internal tubulin signal prior to calculating the ratio of phosphorylated to total protein. Scanning and imaging were completed according to published methods.

[5] = biological target: T5, p-AMPK in the presence of PP2C (Rattus norvegicus, UniProt P54645+P80385); test: Phosphatase assay: protection of p-AMPK from dephosphorylation by PP2C; format: biochemical; conditions: p-AMPK/total AMPK ratio normalized to no-PP2C control
T5 construct: Full-length AMPK intended for use in phosphatase and kinase assays was purified, mixed with GST-CaMKKβ; made in house; host or cells: Rosetta cells (E. coli); phosphorylated in vitro with GST-CaMKKβ, which was then removed
T5 sequence (P54645 with tags, fused parts or gaps limits assumed): as the sequence (P54645 with tags, fused parts or gaps limits assumed) above
T5 sequence (P80386 whole entry partner): as the sequence (P80386 whole entry partner, the tested form may be a part) above
T5 sequence (P80385 whole entry): as the sequence (P80385 whole entry, the tested form may be a part) above
Experimental: Phosphatase assays. Assay conditions were adapted from published methods (18). In short, the final assay buffer was compromised of 50 mM Tris (pH 7.5), […], 0.01% Triton X-100, 1 mM DTT, and 0.45% DMSO (vehicle). Because some analogs had poor solubility at high concentrations, all analogs and controls were diluted in assay buffer and centrifuged (1 min, 5000 rpm, 4° C.) to remove insoluble matter. PP2C and p-AMPK were added to the supernatant at final concentrations of 2 and 3 ng/μL, respectively. Phosphatase reactions were allowed to proceed for 30 minutes at 37° C. Reactions were stopped by the addition of loading buffer and 48 mM DTT followed promptly by freezing at −20° C.
Western analyses. Protein samples were boiled for 15 minutes in loading buffer and DTT prior to SDS-PAGE. Blots for protein-based assays were sequentially incubated with the following: 5% BSA in 1× TBS (1 hr, 22° C.), 1:1000 rabbit anti-human p-AMPK-α antibody or p-ACC antibody (2 hr, 22° C.), and 1:10,000 donkey anti-rabbit secondary antibody (1 hr, 22° C.). Blots for phosphatase assays were probed a second time using 1:100 mouse anti-human total AMPK antibody (overnight, 4° C.; from UNC Antibody Core Facility) followed by 1:10,000 donkey anti-mouse secondary antibody (1 hr, 22° C.). […]

[6] = test system: p-ACC levels in HEK cells; test: Cell-intact assay, p-ACC levels in HEK cells; format: cell-based, human; conditions: for p-ACC levels (substrate phosphorylation), pre-conditioned HEK cells: serum starvation followed by 10% serum, 1 hour
Experimental: (§6) Cell-intact assays. HEK cells were grown in DMEM with 10% FBS and 1% penicillin/streptomycin at 37° C. A subset of plates was serum-starved for 5 hours on the day of the experiment. After 5 hours of serum-starvation, cells were treated with either controls (0.2% DMSO, A-769662, or Compound C) or small molecules in the absence of serum for an additional hour prior to lysis. Another subset of plates was serum-starved for 6 hours and then treated with either controls or small molecules for 1 hour in the presence of 10% FBS. A time course of both AMPK and ACC phosphorylation in HEK cells during serum starvation has already been published (Pirkmajer S, Chibalin A V. Serum starvation: caveat emptor. American journal of physiology Cell physiology. 2011 August; 301(2):C272-9. PubMed PMID: 2161361).
(§7) After incubating in the presence of drugs for one hour, cells were washed three times with ice-cold PBS and lysed according to published methods (Kazgan N, Williams T, Forsberg L J, Brenman J E. Identification of a nuclear export signal in the catalytic subunit of AMP-activated protein kinase. Molecular biology of the cell. 2010 Oct. 1; 21(19):3433-42. PubMed PMID: 20685962. Pubmed Central PMCID: 2947478). Lysates were centrifuged at 16,000 g (10 minutes, 4° C.). Clarified supernatant (30 μL) was then transferred to 10 μL 4X loading buffer and 2 μL 1 M DTT. Samples were immediately frozen at −20° C. The concentration of protein in diluted clarified supernatant was calculated using a DC protein assay kit (BioRad) prior to western analyses.
as §5

[7] = test system: p-AMPK levels in HEK cells; test: Cell-intact assay, p-AMPK levels in HEK cells; format: cell-based, human; conditions: serum starvation followed by 10% serum; 1 hour
Experimental: as §6
as §7, with “Lysates were centrifuged at 16,000 g (10 minutes, 4° C.). Clarified supernatant (30 μL) was then transferred to 10 μL 4X loading buffer and 2 μL 1 M DTT. Samples were immediately frozen at −20° C.” left out, “analyses. […]” for “analyses.”

[8] = test system: HEK cells; test: Cell-intact assay, attachment of HEK cells to tissue culture plates; format: cell-based, human; conditions: absence of serum
Experimental: as §6

Compound | displacement of MANT-ADP: full-length AMPK compared with regulatory fragment [1] | IC50 ([1]; MANT-ADP with no protein = 100% inhibition, read-out: IC50, inhibition of the increase in MANT-ADP fluorescence) | IC50 [2] | Kd [3] | inhibition of the protein-bound signal of MANT-ADP in the triplicate similarity screen ([1]; final concentration 45 μM) | IC50 ([1]; Example 4, read-out: binding IC50) | activity of purified p-AMPK (phosphorylation of GST-ACC peptide), dose response ([4]; compared to DMSO control) | dose response when repeated with an additional concentration at 1 μM ([4]; high p-GST-ACC peptide at both 1 and 40 μM, data not shown) | substrate phosphorylation at higher doses ([4]; higher doses) | protection of p-AMPK from dephosphorylation [5] | p-ACC levels, serum-treated HEK cells ([6]; 10% serum) | p-ACC levels (substrate phosphorylation), pre-conditioned HEK cells [6] | p-AMPK levels, pre-conditioned HEK cells [7] | detachment of cells from tissue culture plates [8]
Nc1ncnc2c1ncn2[C@@H]1O[C@H](COP(=O)(O)OP(=O)(O)O)[C@@H](O)[C@H]1O [ADP, adenosine diphosphate, reference compound] | same binding IC50; also recorded: same concentration | 300 nM | 400 nM | 13000 nM |  |  |  |  |  |  |  |  |  | 
O=C1/C(=C/c2ccc(-c3ccc(Cl)c(Cl)c3)o2)SC(=S)N1CCS(=O)(=O)O [BAS 02250954, 2-[(5Z)-5-{[5-(3,4-Dichlorophenyl)furan-2-yl]methylidene}-4-oxo-2-sulfanylidene-1,3-thiazolidin-3-yl]ethane-1-sulfonic acid] | greater concentration |  |  |  | reproducibly inhibited | < 5000 nM | significantly inhibited substrate phosphorylation at low doses; also recorded: inhibits substrate phosphorylation | complete U-shaped dose response | permitted substrate phosphorylation | protected p-AMPK from dephosphorylation | decreased substrate phosphorylation | no change in substrate phosphorylation; also recorded: does not increase | high levels of p-AMPK | caused many cells to detach
N#Cc1c(O)c2c(-c3ccc(-c4ccccc4O)cc3)csc2[nH]c1=O [Example A-769662, reference compound] |  |  |  |  |  |  |  |  |  |  |  | increased | increased | 
